According to patent US9453051B2, “Cyclosporin derivatives” (priority 2011, dated 2016):

How the values were obtained:
in vitro = conditions: human, Caco-2, pH 7.4
NFAT = experiment: Cellular NFAT-reporter-gene assay (GloResponse NFAT-RE-luc2P HEK293); format: cell-based; conditions: Homo sapiens, HEK293, 16 h, read-out: NFAT-reporter-gene assay IC50
From the text: An antigen specific stimulation of the T-cell receptor causes the activation of transcription factors such as e.g. NFAT (nuclear factor of activated T cells). NFAT-activation is essential for the expression of interleukine-2 and therefore, for the proliferation of T-cells as part of the immune response. A stable NFAT-reporter-gene cell line enables the analysis of modulators of the NFAT-pathways and thus, the evaluation of the immunosuppressive effects of compounds.
The stably transfected reporter-gene cell line GloResponse NFAT-RE-luc2P HEK293 (promega Corp. USA) was cultivated in DMEM (10% FCS; 2 mM Glutamin; 200 μg/ml Hygromycin) and seeded on 96-well plates (200.000 cells/well). The compounds to be tested were either added to the cells in a 2-point-determination (5 μM and 10 μM) or an ICH-determination (concentration series 4.1 nM-1 μM). […] Immediately thereafter the cells were stimulated with 5 nM PMA and 2 μM ionomycin and incubated over 16 h (37° C.; cell incubator). This double stimulation simulates a T-cell receptor stimulation and causes a NFAT activation with subsequently expression of the luciferase-reporter-gene. The amount of luciferase was quantitatively determined after 16 h by measurement of the bioluminescence by Bright-Glo Luciferase-Assay-System (Promega Corp., USA). The averaged luciferase values of the vehicle treated (1% DMSO) and with PMA/ionomycin stimulated cells were used as positive control and reference value.

[1] = target: recombinant human wild type Cyp18 (Cyp18 wt) (Homo sapiens, UniProt P62937); experiment: biochemical
[2] = Determination of cell permeability in PAMPA cell membranes (Parallel Artificial Membrane Permeability Assay); format: in vitro ADME; conditions: 500 μM, Hepes buffer pH 7.4, 16 hours, room temperature
Procedure: After an incubation of 16 hours at room temperature in a liquid chamber the optical density of the solution after filtration has been measured in a range of 250 to 500 nm in steps of 10 nm each. The percentage “Flux” has been calculated from the integral of the graph between 250 and 500 nm and standardized on the optical density determined in the parallel reaction without artificial membrane.

calcineurin = calcineurin (Homo sapiens, UniProt P62937+P63098+Q08209); experiment: Inhibition of the phosphatase activity of calcineurin (scintillation-proximity-assay, in presence of Cyp18);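 also: calcineurin dephosphorylation of a ³³P-labelled RII phosphopeptide, captured on streptavidin-coated wells and read by scintillation counting, with uninhibited enzyme activity taken as 100%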
Procedure: The measurement was carried out by incubation of 10 μMol of the biotinylated phosphopeptide [sequence]pSer-Val-Ala-Ala-Glu (MW=2192.0) (RH-peptide) marked with ^33P in a sample buffer (40 mM Tris-HCl, pH 7.5, 100 mM NaCl, 6 mM MgCl2, 0.5 mM dithiothreitol, 1 mM. CaCl2, 0.1 mg/ml bovine serum albumin) in presence of 50 nM calmodulin and 1.32 nM calcineurin at 30° C. for 20 min in a 96 well micro titer plate (Costar, Bodenheim, Germany). The total volume of the assay/well was 100 μl. After this reaction time a 90 μl aliquot of the reaction mixture was transferred into a scintillation cavity coated with streptavidin and incubated for 20 min at 22° C. After a washing step the RII phosphopeptide-associated ^33P radioactivity was measured in a MicroBeta Top Counter (Wallac) and the enzyme activity was indicated as average value of three measurements±S.D. The uninhibited dephosphorylation activity has been set on 100%.

recombinant human wild type Cyp18 (Cyp18 wt), sequence (P62937 whole entry): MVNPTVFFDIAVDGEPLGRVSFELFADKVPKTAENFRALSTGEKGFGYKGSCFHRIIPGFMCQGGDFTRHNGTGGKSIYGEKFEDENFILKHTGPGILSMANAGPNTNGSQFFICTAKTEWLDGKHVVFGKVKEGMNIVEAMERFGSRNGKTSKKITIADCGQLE

| Compound | Papp A→B at 2 h, 5 μM (in vitro) [×10⁻⁶ cm/s] | Papp B→A at 2 h, 5 μM (in vitro) [×10⁻⁶ cm/s] | IC50 (NFAT) [µM] | IC50 [1] [µM] | Cell permeability in PAMPA-cell membranes [2] [% flux] | IC50 (calcineurin) [µM] |
| --- | --- | --- | --- | --- | --- | --- |
| CC[C@@H]1NC(=O)[C@H]([C@H](O)[C@H](C)Cc2nc3cc(C(=O)O)c(C(=O)O)cc3[nH]2)N(C)C(=O)[C@H](C(C)C)N(C)C(=O)[C@H](CC(C)C)N(C)C(=O)[C@H](CC(C)C)N(C)C(=O)[C@@H](C)NC(=O)[C@H](C)NC(=O)[C@H](CC(C)C)N(C)C(=O)[C@H](C(C)C)NC(=O)[C@H](CC(C)C)N(C)C(=O)CN(C)C1=O [Compound 31] | < 0.15 | < 0.18 | > 10 | 0.0399 | 0.2 | – |
| CC[C@@H]1NC(=O)[C@H]([C@H](O)[C@H](C)Cc2nc3cc(C(N)=O)ccc3[nH]2)N(C)C(=O)[C@H](C(C)C)N(C)C(=O)[C@H](CC(C)C)N(C)C(=O)[C@H](CC(C)C)N(C)C(=O)[C@@H](C)NC(=O)[C@H](C)NC(=O)[C@H](CC(C)C)N(C)C(=O)[C@H](C(C)C)NC(=O)[C@H](CC(C)C)N(C)C(=O)CN(C)C1=O [Compound 23] | 0.3 | 0.6 | > 10 | 0.0038 | – | > 10 |
| CC[C@@H]1NC(=O)[C@H]([C@H](O)[C@H](C)Cc2nc3cc(F)cc(C(=O)O)c3[nH]2)N(C)C(=O)[C@H](C(C)C)N(C)C(=O)[C@H](CC(C)C)N(C)C(=O)[C@H](CC(C)C)N(C)C(=O)[C@@H](C)NC(=O)[C@H](C)NC(=O)[C@H](CC(C)C)N(C)C(=O)[C@H](C(C)C)NC(=O)[C@H](CC(C)C)N(C)C(=O)CN(C)C1=O [Compound 21] | – | – | 5.3 | 0.0222 | – | > 10 |
| CC[C@@H]1NC(=O)[C@H]([C@H](O)[C@H](C)Cc2nc3cccc(C(=O)OC)c3[nH]2)N(C)C(=O)[C@H](C(C)C)N(C)C(=O)[C@H](CC(C)C)N(C)C(=O)[C@H](CC(C)C)N(C)C(=O)[C@@H](C)NC(=O)[C@H](C)NC(=O)[C@H](CC(C)C)N(C)C(=O)[C@H](C(C)C)NC(=O)[C@H](CC(C)C)N(C)C(=O)CN(C)C1=O [Compound 29] | – | – | 10 | 0.0295 | – | > 10 |
| CC[C@@H]1NC(=O)[C@H]([C@H](O)[C@H](C)Cc2nc3cc(C(=O)OC)c(C(=O)OC)cc3[nH]2)N(C)C(=O)[C@H](C(C)C)N(C)C(=O)[C@H](CC(C)C)N(C)C(=O)[C@H](CC(C)C)N(C)C(=O)[C@@H](C)NC(=O)[C@H](C)NC(=O)[C@H](CC(C)C)N(C)C(=O)[C@H](C(C)C)NC(=O)[C@H](CC(C)C)N(C)C(=O)CN(C)C1=O [Compound 32] | – | – | > 10 | 0.0249 | – | > 10 |
| CC[C@@H]1NC(=O)[C@H]([C@H](O)[C@H](C)Cc2nc3cc(/C=C/C(=O)O)ccc3[nH]2)N(C)C(=O)[C@H](C(C)C)N(C)C(=O)[C@H](CC(C)C)N(C)C(=O)[C@H](CC(C)C)N(C)C(=O)[C@@H](C)NC(=O)[C@H](C)NC(=O)[C@H](CC(C)C)N(C)C(=O)[C@H](C(C)C)NC(=O)[C@H](CC(C)C)N(C)C(=O)CN(C)C1=O [Compound 15] | – | – | > 10 | 0.0048 | – | > 10 |
| CC[C@@H]1NC(=O)[C@H]([C@H](O)[C@H](C)Cc2nc3cc(-c4nnn[nH]4)ccc3[nH]2)N(C)C(=O)[C@H](C(C)C)N(C)C(=O)[C@H](CC(C)C)N(C)C(=O)[C@H](CC(C)C)N(C)C(=O)[C@@H](C)NC(=O)[C@H](C)NC(=O)[C@H](CC(C)C)N(C)C(=O)[C@H](C(C)C)NC(=O)[C@H](CC(C)C)N(C)C(=O)CN(C)C1=O [Compound 33] | < 0.15 | < 0.15 | > 10 | – | 0.25 | > 10 |
| CC[C@@H]1NC(=O)[C@H]([C@H](O)[C@H](C)Cc2nc3cc(C(=O)O)ccc3n2C)N(C)C(=O)[C@H](C(C)C)N(C)C(=O)[C@H](CC(C)C)N(C)C(=O)[C@H](CC(C)C)N(C)C(=O)[C@@H](C)NC(=O)[C@H](C)NC(=O)[C@H](CC(C)C)N(C)C(=O)[C@H](C(C)C)NC(=O)[C@H](CC(C)C)N(C)C(=O)CN(C)C1=O [Compound 36] | 0.3 | – | > 10 | – | 0.7 | > 10 |
| CCC(CC)COC(=O)c1ccc2[nH]c(C[C@@H](C)[C@@H](O)[C@H]3C(=O)N[C@@H](CC)C(=O)N(C)CC(=O)N(C)[C@@H](CC(C)C)C(=O)N[C@@H](C(C)C)C(=O)N(C)[C@@H](CC(C)C)C(=O)N[C@@H](C)C(=O)N[C@H](C)C(=O)N(C)[C@@H](CC(C)C)C(=O)N(C)[C@@H](CC(C)C)C(=O)N(C)[C@@H](C(C)C)C(=O)N3C)nc2c1 [Compound 10] | – | – | > 10 | 0.0115 | – | 6.9 |
| CC[C@@H]1NC(=O)[C@H]([C@H](O)[C@H](C)Cc2nc3cc(C(=O)OCCN4CCOCC4)ccc3[nH]2)N(C)C(=O)[C@H](C(C)C)N(C)C(=O)[C@H](CC(C)C)N(C)C(=O)[C@H](CC(C)C)N(C)C(=O)[C@@H](C)NC(=O)[C@H](C)NC(=O)[C@H](CC(C)C)N(C)C(=O)[C@H](C(C)C)NC(=O)[C@H](CC(C)C)N(C)C(=O)CN(C)C1=O [Compound 27] | – | – | 7.4 | 0.0059 | – | 6.4 |
| CC[C@@H]1NC(=O)[C@H]([C@H](O)[C@H](C)Cc2nc3cccc(C(=O)O)c3[nH]2)N(C)C(=O)[C@H](C(C)C)N(C)C(=O)[C@H](CC(C)C)N(C)C(=O)[C@H](CC(C)C)N(C)C(=O)[C@@H](C)NC(=O)[C@H](C)NC(=O)[C@H](CC(C)C)N(C)C(=O)[C@H](C(C)C)NC(=O)[C@H](CC(C)C)N(C)C(=O)CN(C)C1=O [Compound 28] | < 0.4 | 0.3 | > 10 | – | 3.3 | – |
| CC[C@@H]1NC(=O)[C@H]([C@H](O)[C@H](C)Cc2nc3nc(O)nc(O)c3[nH]2)N(C)C(=O)[C@H](C(C)C)N(C)C(=O)[C@H](CC(C)C)N(C)C(=O)[C@H](CC(C)C)N(C)C(=O)[C@@H](C)NC(=O)[C@H](C)NC(=O)[C@H](CC(C)C)N(C)C(=O)[C@H](C(C)C)NC(=O)[C@H](CC(C)C)N(C)C(=O)CN(C)C1=O [Compound 24] | – | – | > 10 | 0.0062 | – | > 10 |
| CC[C@@H]1NC(=O)[C@H]([C@H](O)[C@H](C)Cc2nc3cc(N4CCN(C)CC4)ccc3[nH]2)N(C)C(=O)[C@H](C(C)C)N(C)C(=O)[C@H](CC(C)C)N(C)C(=O)[C@H](CC(C)C)N(C)C(=O)[C@@H](C)NC(=O)[C@H](C)NC(=O)[C@H](CC(C)C)N(C)C(=O)[C@H](C(C)C)NC(=O)[C@H](CC(C)C)N(C)C(=O)CN(C)C1=O [Compound 41] | – | – | > 10 | 0.003 | – | > 10 |
| CC[C@@H]1NC(=O)[C@H]([C@H](O)[C@H](C)Cc2nc3cc(C(=O)NN)ccc3[nH]2)N(C)C(=O)[C@H](C(C)C)N(C)C(=O)[C@H](CC(C)C)N(C)C(=O)[C@H](CC(C)C)N(C)C(=O)[C@@H](C)NC(=O)[C@H](C)NC(=O)[C@H](CC(C)C)N(C)C(=O)[C@H](C(C)C)NC(=O)[C@H](CC(C)C)N(C)C(=O)CN(C)C1=O [Compound 19] | – | – | > 10 | 0.0054 | – | 7 |
| CC[C@@H]1NC(=O)[C@H]([C@H](O)[C@H](C)Cc2nc3ccc(C(=O)O)cc3n2C)N(C)C(=O)[C@H](C(C)C)N(C)C(=O)[C@H](CC(C)C)N(C)C(=O)[C@H](CC(C)C)N(C)C(=O)[C@@H](C)NC(=O)[C@H](C)NC(=O)[C@H](CC(C)C)N(C)C(=O)[C@H](C(C)C)NC(=O)[C@H](CC(C)C)N(C)C(=O)CN(C)C1=O [Compound 37] | 0.1 | – | > 10 | – | 2 | – |
